pEC50, pKi: −log10 of the molar value.
Assays:
[1] = molecular target: T1, SOS-mediated nucleotide exchange on Ras (Homo sapiens, UniProt Q07889); assay: SOS-mediated nucleotide exchange on Ras (BODIPY-GDP fluorescence); assay type: biochemical; conditions: Ras loaded with BODIPY-GDP, GTP and SOS added; EC50 from derived exchange rates
T1 sequence (Q07889 1-1333): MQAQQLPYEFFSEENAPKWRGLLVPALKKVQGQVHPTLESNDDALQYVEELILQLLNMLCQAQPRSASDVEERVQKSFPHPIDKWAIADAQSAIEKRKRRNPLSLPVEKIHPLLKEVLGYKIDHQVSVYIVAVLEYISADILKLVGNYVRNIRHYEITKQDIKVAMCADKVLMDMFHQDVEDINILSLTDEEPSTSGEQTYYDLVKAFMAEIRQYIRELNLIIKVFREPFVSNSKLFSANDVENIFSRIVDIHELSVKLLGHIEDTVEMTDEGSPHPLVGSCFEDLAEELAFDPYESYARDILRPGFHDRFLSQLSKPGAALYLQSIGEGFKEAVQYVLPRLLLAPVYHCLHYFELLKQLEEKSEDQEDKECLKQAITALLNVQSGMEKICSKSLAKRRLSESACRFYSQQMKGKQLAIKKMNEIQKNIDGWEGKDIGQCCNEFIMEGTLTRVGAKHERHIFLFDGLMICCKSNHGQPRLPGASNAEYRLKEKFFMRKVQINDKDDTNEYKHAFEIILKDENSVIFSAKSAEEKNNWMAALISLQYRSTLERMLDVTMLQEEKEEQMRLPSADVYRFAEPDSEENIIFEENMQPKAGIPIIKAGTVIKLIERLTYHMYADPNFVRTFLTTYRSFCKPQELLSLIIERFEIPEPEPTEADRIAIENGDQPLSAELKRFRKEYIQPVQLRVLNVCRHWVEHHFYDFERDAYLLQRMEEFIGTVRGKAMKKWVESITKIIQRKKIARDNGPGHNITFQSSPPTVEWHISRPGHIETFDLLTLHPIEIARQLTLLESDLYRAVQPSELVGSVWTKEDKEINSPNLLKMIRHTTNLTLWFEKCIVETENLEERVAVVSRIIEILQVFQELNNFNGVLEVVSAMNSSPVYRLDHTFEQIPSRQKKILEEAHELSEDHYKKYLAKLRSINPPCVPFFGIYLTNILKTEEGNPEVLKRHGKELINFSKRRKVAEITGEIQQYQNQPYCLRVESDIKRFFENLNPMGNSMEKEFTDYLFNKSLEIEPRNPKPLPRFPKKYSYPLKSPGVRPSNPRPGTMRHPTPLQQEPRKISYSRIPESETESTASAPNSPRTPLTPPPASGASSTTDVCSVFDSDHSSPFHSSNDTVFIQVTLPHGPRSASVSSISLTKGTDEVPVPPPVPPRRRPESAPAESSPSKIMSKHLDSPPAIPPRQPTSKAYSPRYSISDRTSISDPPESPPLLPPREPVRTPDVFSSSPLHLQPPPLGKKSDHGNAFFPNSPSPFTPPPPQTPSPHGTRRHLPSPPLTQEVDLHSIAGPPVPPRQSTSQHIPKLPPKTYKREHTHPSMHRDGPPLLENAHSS
In short: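 Compound, then GTP and SOS, were added to buffered Ras preloaded with BODIPY-GDP, and the fluorescence change from labeled GDP being exchanged for GTP was followed over time. Rates came from single-exponential fits, and EC50 from a four-parameter fit of mean rate against compound concentration.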

[2] = molecular target: T2, Son of Sevenless (SOS) (Homo sapiens, UniProt Q07889); assay: Binding to SOS, fluorescence polarization anisotropy (FPA) displacement of FITC-conjugated probe; conditions: binding affinity calculated from IC50 of FITC-probe displacement, read-out: Binding affinities (binding affinity to SOS)
T2 sequence (Q07889 564-1049 limits assumed): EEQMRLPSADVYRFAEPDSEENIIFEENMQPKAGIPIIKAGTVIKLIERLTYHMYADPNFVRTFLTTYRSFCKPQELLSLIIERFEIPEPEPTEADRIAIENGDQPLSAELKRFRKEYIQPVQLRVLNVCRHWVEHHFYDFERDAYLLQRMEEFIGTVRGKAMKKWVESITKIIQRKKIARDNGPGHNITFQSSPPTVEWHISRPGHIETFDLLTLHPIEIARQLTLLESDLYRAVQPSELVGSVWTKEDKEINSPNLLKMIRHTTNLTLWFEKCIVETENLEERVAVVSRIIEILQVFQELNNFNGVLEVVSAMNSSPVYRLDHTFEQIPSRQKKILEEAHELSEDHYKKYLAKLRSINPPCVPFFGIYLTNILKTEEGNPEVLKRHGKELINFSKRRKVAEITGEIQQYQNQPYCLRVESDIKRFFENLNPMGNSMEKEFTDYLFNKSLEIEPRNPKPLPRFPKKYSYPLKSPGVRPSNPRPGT
Protocol: Compounds of the present invention were tested for their ability to the Ras guanine exchange factor (GEF) Son of Sevenless (SOS). Binding to SOS was measured using a Fluorescence polarization anisotropy (FPA) assay that assesses the ability of a test compound to displace a fluorescent FITC-conjugated compound. Briefly, the labeled probe compound is incubated with SOS in buffer. Changes in anisotropy indicative of displacement of the labeled probe for a test compound are assessed over a dose range of test compound. Data was analyzed by plotting fluorescence anisotropy values as a function of compound concentration. IC50 values were determined using a four-parameter dose-response (variable slope) and binding affinities were calculated from this IC50 value. This assay is performed in a method analogous to the assay disclosed in: Burns, M. C.; Sun, Q.; Daniels, R. N.; Camper, D. V.; Kennedy, J. P.; Phan, J.; Olejniczak, E. O.; Lee, T.; Waterson, A. G.; Rossanese, O. W.; Fesik, S. W. “Approach for targeting Ras with small molecules that activate SOS-mediated nucleotide exchange” Proc. Natl. Acad. Sci. 2014; 11(9): 3401-3406. PMCID: PMC3948241.

Row | pEC50 [1] | pKi [2] | Structure (SMILES)
1 | 4.52 to 5.30 | > 6.00 | C[C@@H](Nc1nc(NCC2CCCCC2)nc2c(CCN)cccc12)c1cccs1 [Example 93, (R)-8-(2-aminoethyl)-N^2-(cyclohexylmethyl)-N^4-(1-(thiophen-2-yl)ethyl)quinazoline-2,4-diamine]
2 | 4.52 to 5.30 | < 5.30 | C[C@@H](Nc1nc(NCC2CCCCCC2)nc2c(C3=CCNCC3)cccc12)C1CC1 [Example 103, (R)—N^2-(cycloheptylmethyl)-N^4-(1-cyclopropylethyl)-8-(1,2,3,6-tetrahydropyridin-4-yl)quinazoline-2,4-diamine]
3 | 5.30 to 6.00 | 5.30 to 6.00 | C[C@@H](Nc1nc(NCC2CCCC2)nc2c(C3=CCNCC3)cccc12)C1CC1 [Example 105, (R)—N^2-(cyclopentylmethyl)-N^4-(1-cyclopropylethyl)-8-(1,2,3,6-tetrahydropyridin-4-yl)quinazoline-2,4-diamine]
4 | > 6.00 | 5.30 to 6.00 | C[C@@H](Nc1nc(NCC2CCC2)nc2c(C3=CCNCC3)cccc12)C1CC1 [Example 106, (R)—N^2-(cyclobutylmethyl)-N^4-(1-cyclopropylethyl)-8-(1,2,3,6-tetrahydropyridin-4-yl)quinazoline-2,4-diamine]
5 | 5.30 to 6.00 | 5.30 to 6.00 | Cc1cc(F)cc(Nc2nc(N[C@H](C)C3CC3)c3cccc(C4=CCNCC4)c3n2)c1 [Example 107, (R)—N^4-(1-cyclopropylethyl)-N^2-(3-fluoro-5-methylphenyl)-8-(1,2,3,6-tetrahydropyridin-4-yl)quinazoline-2,4-diamine]
6 | 5.30 to 6.00 | 5.30 to 6.00 | Cc1cc(F)cc(Nc2nc(NC(C3CC3)C3CC3)c3cccc(C4=CCNCC4)c3n2)c1 [Example 108, N^4-(dicyclopropylmethyl)-N^2-(3-fluoro-5-methylphenyl)-8-(1,2,3,6-tetrahydropyridin-4-yl)quinazoline-2,4-diamine]
7 | 4.52 to 5.30 | < 5.30 | C[C@@H](Nc1nc(Nc2ccc(F)c(Cl)c2)nc2c(NCC3CNC3)cccc12)C1CC1 [Example 111, (R)—N^8-(azetidin-3-ylmethyl)-N^2-(3-chloro-4-fluorophenyl)-N^4-(1-cyclopropylethyl)quinazoline-2,4,8-triamine]
8 | 5.30 to 6.00 | 5.30 to 6.00 | C[C@@H](Nc1nc(Nc2ccc(F)c(Cl)c2)nc2c(CC3CNC3)cccc12)C1CC1 [Example 113, (R)-8-(azetidin-3-ylmethyl)-N^2-(3-chloro-4-fluorophenyl)-N^4-(1-cyclopropylethyl)quinazoline-2,4-diamine]
9 | 5.30 to 6.00 | 5.30 to 6.00 | C=CC[C@@H](Nc1nc(Nc2ccc(F)c(Cl)c2)nc2c(C3=CCNCC3)cccc12)C1CC1 [Example 115, (R)—N^2-(3-chloro-4-fluorophenyl)-N^4-(1-cyclopropylbut-3-en-1-yl)-8-(1,2,3,6-tetrahydropyridin-4-yl)quinazoline-2,4-diamine]
10 | 5.30 to 6.00 | > 6.00 | C=CC[C@@H](Nc1nc(Nc2cc(F)cc(F)c2)nc2c(C3=CCNCC3)cccc12)C1CC1 [Example 116, (R)—N^4-(1-cyclopropylbut-3-en-1-yl)-N^2-(3,5-difluorophenyl)-8-(1,2,3,6-tetrahydropyridin-4-yl)quinazoline-2,4-diamine]
11 | 5.30 to 6.00 | > 6.00 | C=CC[C@@H](Nc1nc(NCC2CCCCC2)nc2c(C3=CCNCC3)cccc12)C1CC1 [Example 117, (R)—N^2-(cyclohexylmethyl)-N^4-(1-cyclopropylbut-3-en-1-yl)-8-(1,2,3,6-tetrahydropyridin-4-yl)quinazoline-2,4-diamine]

More lines, now with the values behind:

Row | Structure (SMILES) | pEC50 [1] | pKi [2]
12 | C[C@@H](Nc1nc(Nc2ccc(F)c(Cl)c2)nc2c(CCN)cccc12)c1cccs1 [Example 91, (R)-8-(2-aminoethyl)-N^2-(3-chloro-4-fluorophenyl)-N^4-(1-(thiophen-2-yl)ethyl)quinazoline-2,4-diamine] | 4.52 to 5.30 | 5.30 to 6.00
13 | Cc1cc(F)cc(Nc2nc(N[C@H](C)c3cccs3)c3cccc(CCN)c3n2)c1 [Example 92, (R)-8-(2-aminoethyl)-N^2-(3-fluoro-5-methylphenyl)-N^4-(1-(thiophen-2-yl)ethyl)quinazoline-2,4-diamine] | 4.52 to 5.30 | < 5.30
14 | C[C@@H](Nc1nc(NCc2cccc(Cl)c2F)nc2c(CCN)cccc12)c1cccs1 [Example 94, (R)-8-(2-aminoethyl)-N^2-(3-chloro-2-fluorobenzyl)-N^4-(1-(thiophen-2-yl)ethyl)quinazoline-2,4-diamine] | 5.30 to 6.00 | 5.30 to 6.00
15 | Cc1cc(F)cc(Nc2nc(N[C@H](C)c3cccs3)c3cccc(CN)c3n2)c1 [Example 95, (R)-8-(aminomethyl)-N^2-(3-fluoro-5-methylphenyl)-N^4-(1-(thiophen-2-yl)ethyl)quinazoline-2,4-diamine] | 4.52 to 5.30 | < 5.30
16 | C[C@@H](Nc1nc(NCc2cccc(Cl)c2F)nc2c(CN)cccc12)c1cccs1 [Example 97, (R)-8-(aminomethyl)-N^2-(3-chloro-2-fluorobenzyl)-N^4-(1-(thiophen-2-yl)ethyl)quinazoline-2,4-diamine] | 4.52 to 5.30 | < 5.30
17 | C[C@@H](Nc1nc(Nc2ccc(F)c(Cl)c2)nc2c(NC3CNC3)cccc12)C1CC1 [Example 112, (R)—N^8-(azetidin-3-yl)-N^2-(3-chloro-4-fluorophenyl)-N-(1-cyclopropylethyl)quinazoline-2,4,8-triamine] | 5.30 to 6.00 | < 5.30
18 | C[C@@H](Nc1nc(Nc2ccc(F)c(Cl)c2)nc2c(CC3CC(N)C3)cccc12)C1CC1 (stereo partly drawn) [Example 114, (R)-8-((3-aminocyclobutyl)methyl)-N^2-(3-chloro-4-fluorophenyl)-N^4-(1-cyclopropylethyl)quinazoline-2,4-diamine] | 5.30 to 6.00 | 5.30 to 6.00
19 | Cc1cc(F)cc(Nc2nc(N[C@H](C)C3CC3)c3cccc(CCN)c3n2)c1 [Example 118, (R)-8-(2-aminoethyl)-N^4-(1-cyclopropylethyl)-N^2-(3-fluoro-5-methylphenyl)quinazoline-2,4-diamine] | 5.30 to 6.00 | 5.30 to 6.00
20 | C[C@@H](Nc1nc(NCc2cccc(Cl)c2F)nc2c(CCN)cccc12)C1CC1 [Example 119, (R)-8-(2-aminoethyl)-N^2-(3-chloro-2-fluorobenzyl)-N^4-(1-cyclopropylethyl)quinazoline-2,4-diamine] | 5.30 to 6.00 | 5.30 to 6.00

Reference: US11318137B2, “Quinazoline compounds as modulators of Ras signaling” (VANDERBILT UNIVERSITY, priority 2017, dated 2022)
